Assay results as given in patent US9249129B2, “Morpholino substituted urea derivatives as mTOR inhibitors” (CELLZOME LIMITED, priority 2010, dated 2016).

Legend:
Assay in all cases: kinobeads assay with mass spectrometry detection of kinases (kinase selectivity profile)
Type in all cases: binding
kinases (kinome) [1] = molecular target: T1, kinases (kinome) (Homo sapiens, UniProt O15530); details: PDK1 (AGC), IPI00002538
T1 construct: determined in kinobeads assays with mass spectrometry detection of kinases as described previously; endogenous in cells; host or cells: cell lysate
T1 sequence (O15530 1-556): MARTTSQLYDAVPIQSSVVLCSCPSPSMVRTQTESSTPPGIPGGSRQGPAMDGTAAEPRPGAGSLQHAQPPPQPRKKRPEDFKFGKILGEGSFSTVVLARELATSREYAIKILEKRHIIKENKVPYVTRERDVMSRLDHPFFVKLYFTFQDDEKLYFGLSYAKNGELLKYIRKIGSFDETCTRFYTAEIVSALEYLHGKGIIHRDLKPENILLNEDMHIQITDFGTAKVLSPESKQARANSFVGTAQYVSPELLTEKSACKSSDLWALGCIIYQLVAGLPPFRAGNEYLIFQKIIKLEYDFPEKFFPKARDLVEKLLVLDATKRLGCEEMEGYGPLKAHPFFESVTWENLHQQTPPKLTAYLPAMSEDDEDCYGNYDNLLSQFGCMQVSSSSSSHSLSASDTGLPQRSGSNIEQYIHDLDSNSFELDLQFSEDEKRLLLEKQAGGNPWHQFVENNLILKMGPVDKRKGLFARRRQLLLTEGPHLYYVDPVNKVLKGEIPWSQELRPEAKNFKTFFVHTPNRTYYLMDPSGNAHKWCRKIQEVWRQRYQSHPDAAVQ
Source text: (§1) The protein kinase complement of the human genome (the kinome) was described previously (Manning et al., 2002. Science 298(5600):1912-1934). Sequence accession numbers are defined by the International Protein Index (IPI) (Kersey et al., 2004. Proteomics 4(7):1985-1988).

kinases (kinome) [2] = molecular target: T2, kinases (kinome) (Homo sapiens, UniProt P06239); details: LCK (TK), IPI00515097
T2 construct: determined in kinobeads assays with mass spectrometry detection of kinases as described previously; endogenous in cells; host or cells: cell lysate
Source text: as §1

kinases (kinome) [3] = molecular target: T3, kinases (kinome) (Homo sapiens, UniProt P12931); details: SRC (TK), IPI00328867
T3 construct: determined in kinobeads assays with mass spectrometry detection of kinases as described previously; endogenous in cells; host or cells: cell lysate
Source text: as §1

kinases (kinome) [4] = molecular target: T4, kinases (kinome) (Homo sapiens, UniProt P27361); details: Erk1 (CMGC), IPI00018195
T4 construct: determined in kinobeads assays with mass spectrometry detection of kinases as described previously; endogenous in cells; host or cells: cell lysate
Source text: as §1

kinases (kinome) [5] = molecular target: T5, kinases (kinome) (Homo sapiens, UniProt P27448); details: MARK3 (CAMK), IPI00183118
T5 construct: determined in kinobeads assays with mass spectrometry detection of kinases as described previously; endogenous in cells; host or cells: cell lysate
Source text: as §1

kinases (kinome) [6] = molecular target: T6, kinases (kinome) (Homo sapiens, UniProt P42356); details: PIK4Ca (Lipid Kinase), IPI00070943
T6 construct: determined in kinobeads assays with mass spectrometry detection of kinases as described previously; endogenous in cells; host or cells: cell lysate
Source text: as §1

kinases (kinome) [7] = molecular target: T7, kinases (kinome) (Homo sapiens, UniProt P51617); details: IRAK1 (TKL), IPI00293652
T7 construct: determined in kinobeads assays with mass spectrometry detection of kinases as described previously; endogenous in cells; host or cells: cell lysate
Source text: as §1

kinases (kinome) [8] = molecular target: T8, kinases (kinome) (Homo sapiens, UniProt P51955); details: NEK2 (Other), IPI00021331
T8 construct: determined in kinobeads assays with mass spectrometry detection of kinases as described previously; endogenous in cells; host or cells: cell lysate
T8 sequence (P51955 1-445): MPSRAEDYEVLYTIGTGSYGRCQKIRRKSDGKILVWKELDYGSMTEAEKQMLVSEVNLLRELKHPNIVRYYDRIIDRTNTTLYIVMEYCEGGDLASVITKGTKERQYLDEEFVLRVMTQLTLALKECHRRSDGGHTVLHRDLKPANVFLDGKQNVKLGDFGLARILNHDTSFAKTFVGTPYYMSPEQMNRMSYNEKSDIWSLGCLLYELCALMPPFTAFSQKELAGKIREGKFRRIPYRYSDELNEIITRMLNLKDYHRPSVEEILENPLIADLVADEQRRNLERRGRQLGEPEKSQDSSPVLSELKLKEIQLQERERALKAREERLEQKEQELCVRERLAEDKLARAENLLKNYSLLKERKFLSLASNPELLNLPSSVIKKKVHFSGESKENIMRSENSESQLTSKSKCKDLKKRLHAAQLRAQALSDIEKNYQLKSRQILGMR
Source text: as §1

kinases (kinome) [9] = molecular target: T9, kinases (kinome) (Homo sapiens, UniProt Q13233); details: MAP3K1 (STE), IPI00855985
T9 construct: determined in kinobeads assays with mass spectrometry detection of kinases as described previously; endogenous in cells; host or cells: cell lysate
Source text: as §1

kinases (kinome) [10] = molecular target: T10, kinases (kinome) (Homo sapiens, UniProt Q15131); details: CDK10 (CMGC), IPI00014873
T10 construct: determined in kinobeads assays with mass spectrometry detection of kinases as described previously; endogenous in cells; host or cells: cell lysate
Source text: as §1

kinases (kinome) [11] = molecular target: T11, kinases (kinome) (Homo sapiens, UniProt Q16512); details: PKN1 (AGC), IPI00412672
T11 construct: determined in kinobeads assays with mass spectrometry detection of kinases as described previously; endogenous in cells; host or cells: cell lysate
Source text: as §1

kinases (kinome) [12] = molecular target: T12, kinases (kinome) (Homo sapiens, UniProt Q96L34); details: MARK4 (CAMK), IPI00064797
T12 construct: determined in kinobeads assays with mass spectrometry detection of kinases as described previously; endogenous in cells; host or cells: cell lysate
T12 sequence (Q96L34 1-752): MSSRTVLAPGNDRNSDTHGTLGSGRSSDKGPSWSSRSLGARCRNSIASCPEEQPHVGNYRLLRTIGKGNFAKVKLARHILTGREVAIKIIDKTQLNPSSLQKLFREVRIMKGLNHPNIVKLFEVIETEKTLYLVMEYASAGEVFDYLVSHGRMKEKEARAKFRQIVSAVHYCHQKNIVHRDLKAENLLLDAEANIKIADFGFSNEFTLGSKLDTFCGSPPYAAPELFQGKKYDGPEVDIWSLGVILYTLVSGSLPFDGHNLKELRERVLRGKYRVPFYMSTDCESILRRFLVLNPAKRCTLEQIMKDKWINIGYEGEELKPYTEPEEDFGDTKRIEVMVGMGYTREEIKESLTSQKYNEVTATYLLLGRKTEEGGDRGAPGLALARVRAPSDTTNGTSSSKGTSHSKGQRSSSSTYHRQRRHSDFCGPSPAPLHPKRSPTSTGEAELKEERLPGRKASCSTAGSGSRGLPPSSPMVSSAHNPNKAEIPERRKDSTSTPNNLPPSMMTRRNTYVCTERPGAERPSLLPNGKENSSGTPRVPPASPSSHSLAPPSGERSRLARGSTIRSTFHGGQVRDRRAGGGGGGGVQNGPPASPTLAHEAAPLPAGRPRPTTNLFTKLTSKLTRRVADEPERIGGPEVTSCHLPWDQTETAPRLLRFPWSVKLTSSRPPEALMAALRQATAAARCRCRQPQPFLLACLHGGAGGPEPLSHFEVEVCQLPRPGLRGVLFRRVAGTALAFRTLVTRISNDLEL
Source text: as §1

kinases (kinome) [13] = molecular target: T13, kinases (kinome) (Homo sapiens, UniProt Q9NSY1); details: BIKE (Other), IPI00337426
T13 construct: determined in kinobeads assays with mass spectrometry detection of kinases as described previously; endogenous in cells; host or cells: cell lysate
Source text: as §1

kinases (kinome) [14] = molecular target: T14, kinases (kinome) (Homo sapiens, UniProt Q13554); details: CaMK2b (CAMK), IPI00221305
T14 construct: determined in kinobeads assays with mass spectrometry detection of kinases as described previously; endogenous in cells; host or cells: cell lysate
Source text: as §1

Measured: IC50

T6 sequence (P42356 whole entry): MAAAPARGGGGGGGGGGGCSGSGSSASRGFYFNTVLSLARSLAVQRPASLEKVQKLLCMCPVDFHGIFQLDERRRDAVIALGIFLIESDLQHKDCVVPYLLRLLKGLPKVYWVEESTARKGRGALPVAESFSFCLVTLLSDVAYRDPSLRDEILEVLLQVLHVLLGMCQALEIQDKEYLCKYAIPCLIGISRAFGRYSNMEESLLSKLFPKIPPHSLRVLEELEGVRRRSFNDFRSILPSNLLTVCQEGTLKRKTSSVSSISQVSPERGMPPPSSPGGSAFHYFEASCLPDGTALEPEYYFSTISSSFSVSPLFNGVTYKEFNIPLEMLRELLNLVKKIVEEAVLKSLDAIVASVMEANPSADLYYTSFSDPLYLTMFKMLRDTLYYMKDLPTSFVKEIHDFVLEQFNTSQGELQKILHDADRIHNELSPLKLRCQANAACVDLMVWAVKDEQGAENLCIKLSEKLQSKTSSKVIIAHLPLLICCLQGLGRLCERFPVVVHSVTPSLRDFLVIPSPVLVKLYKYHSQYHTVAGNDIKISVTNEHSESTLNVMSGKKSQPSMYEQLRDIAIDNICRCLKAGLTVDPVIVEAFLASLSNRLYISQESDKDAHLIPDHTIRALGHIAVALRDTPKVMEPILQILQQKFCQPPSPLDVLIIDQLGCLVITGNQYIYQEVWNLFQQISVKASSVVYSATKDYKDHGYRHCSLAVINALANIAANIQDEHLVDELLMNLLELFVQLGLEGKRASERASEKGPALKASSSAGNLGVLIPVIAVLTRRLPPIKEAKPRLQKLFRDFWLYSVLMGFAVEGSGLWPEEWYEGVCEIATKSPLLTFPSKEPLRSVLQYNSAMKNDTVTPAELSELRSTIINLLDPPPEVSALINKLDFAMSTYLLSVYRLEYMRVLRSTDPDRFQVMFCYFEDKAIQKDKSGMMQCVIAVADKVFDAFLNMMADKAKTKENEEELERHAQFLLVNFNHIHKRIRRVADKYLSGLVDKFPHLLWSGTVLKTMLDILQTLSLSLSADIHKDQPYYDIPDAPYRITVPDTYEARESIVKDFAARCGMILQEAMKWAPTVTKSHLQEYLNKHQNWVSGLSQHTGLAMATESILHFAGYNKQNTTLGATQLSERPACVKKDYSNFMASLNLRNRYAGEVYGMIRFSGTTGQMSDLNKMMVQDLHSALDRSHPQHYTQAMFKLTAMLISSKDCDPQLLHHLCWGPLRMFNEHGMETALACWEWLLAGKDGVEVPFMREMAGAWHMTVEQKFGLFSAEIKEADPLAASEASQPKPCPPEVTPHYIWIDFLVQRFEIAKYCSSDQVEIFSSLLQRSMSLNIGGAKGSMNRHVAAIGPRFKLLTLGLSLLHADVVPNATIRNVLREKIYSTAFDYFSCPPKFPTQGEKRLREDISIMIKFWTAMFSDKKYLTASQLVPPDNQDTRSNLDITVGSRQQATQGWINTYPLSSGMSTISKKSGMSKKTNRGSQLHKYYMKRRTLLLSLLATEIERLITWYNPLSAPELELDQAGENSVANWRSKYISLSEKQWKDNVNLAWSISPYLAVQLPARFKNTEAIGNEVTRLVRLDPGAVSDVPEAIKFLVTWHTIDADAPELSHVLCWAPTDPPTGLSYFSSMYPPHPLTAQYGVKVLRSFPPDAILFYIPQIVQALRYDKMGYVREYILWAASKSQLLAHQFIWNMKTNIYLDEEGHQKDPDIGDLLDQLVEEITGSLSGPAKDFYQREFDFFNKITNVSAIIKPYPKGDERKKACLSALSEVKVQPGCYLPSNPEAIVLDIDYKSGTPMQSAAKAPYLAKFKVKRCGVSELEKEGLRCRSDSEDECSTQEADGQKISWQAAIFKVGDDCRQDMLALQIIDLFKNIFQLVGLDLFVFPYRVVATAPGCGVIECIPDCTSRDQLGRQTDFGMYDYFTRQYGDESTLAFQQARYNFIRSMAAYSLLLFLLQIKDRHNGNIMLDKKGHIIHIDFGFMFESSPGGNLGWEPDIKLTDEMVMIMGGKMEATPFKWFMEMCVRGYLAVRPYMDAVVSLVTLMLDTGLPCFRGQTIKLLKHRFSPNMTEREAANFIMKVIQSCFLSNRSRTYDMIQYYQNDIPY
T13 sequence (Q9NSY1 whole entry): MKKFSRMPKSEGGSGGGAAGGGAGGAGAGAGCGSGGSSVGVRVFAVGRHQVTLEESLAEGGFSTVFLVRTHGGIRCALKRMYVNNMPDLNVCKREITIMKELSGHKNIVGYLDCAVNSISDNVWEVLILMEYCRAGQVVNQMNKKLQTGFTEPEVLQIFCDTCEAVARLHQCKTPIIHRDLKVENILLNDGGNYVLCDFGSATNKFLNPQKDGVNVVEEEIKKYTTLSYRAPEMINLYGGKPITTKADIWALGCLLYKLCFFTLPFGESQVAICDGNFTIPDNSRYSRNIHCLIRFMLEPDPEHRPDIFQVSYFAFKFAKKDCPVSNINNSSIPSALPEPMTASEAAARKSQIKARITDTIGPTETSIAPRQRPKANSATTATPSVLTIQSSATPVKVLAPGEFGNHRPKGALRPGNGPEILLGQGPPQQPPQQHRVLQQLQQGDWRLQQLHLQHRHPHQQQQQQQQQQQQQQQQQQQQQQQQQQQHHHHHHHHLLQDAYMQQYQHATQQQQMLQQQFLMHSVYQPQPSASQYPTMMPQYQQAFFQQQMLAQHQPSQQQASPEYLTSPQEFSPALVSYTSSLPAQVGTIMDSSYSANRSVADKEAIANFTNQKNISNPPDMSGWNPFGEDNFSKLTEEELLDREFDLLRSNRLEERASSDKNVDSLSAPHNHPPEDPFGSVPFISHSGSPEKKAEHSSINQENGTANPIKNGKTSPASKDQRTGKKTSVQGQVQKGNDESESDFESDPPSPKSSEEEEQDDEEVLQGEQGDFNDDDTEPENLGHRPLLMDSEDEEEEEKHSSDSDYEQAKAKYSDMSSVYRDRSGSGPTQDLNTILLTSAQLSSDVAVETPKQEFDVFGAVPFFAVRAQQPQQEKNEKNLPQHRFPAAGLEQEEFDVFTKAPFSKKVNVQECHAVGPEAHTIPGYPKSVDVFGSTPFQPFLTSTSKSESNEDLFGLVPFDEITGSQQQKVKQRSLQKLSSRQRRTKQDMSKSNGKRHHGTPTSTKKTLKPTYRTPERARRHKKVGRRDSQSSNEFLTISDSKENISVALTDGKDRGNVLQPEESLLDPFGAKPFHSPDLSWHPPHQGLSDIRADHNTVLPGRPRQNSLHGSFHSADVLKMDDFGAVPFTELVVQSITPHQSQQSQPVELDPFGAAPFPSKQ
T11 sequence (Q16512 whole entry): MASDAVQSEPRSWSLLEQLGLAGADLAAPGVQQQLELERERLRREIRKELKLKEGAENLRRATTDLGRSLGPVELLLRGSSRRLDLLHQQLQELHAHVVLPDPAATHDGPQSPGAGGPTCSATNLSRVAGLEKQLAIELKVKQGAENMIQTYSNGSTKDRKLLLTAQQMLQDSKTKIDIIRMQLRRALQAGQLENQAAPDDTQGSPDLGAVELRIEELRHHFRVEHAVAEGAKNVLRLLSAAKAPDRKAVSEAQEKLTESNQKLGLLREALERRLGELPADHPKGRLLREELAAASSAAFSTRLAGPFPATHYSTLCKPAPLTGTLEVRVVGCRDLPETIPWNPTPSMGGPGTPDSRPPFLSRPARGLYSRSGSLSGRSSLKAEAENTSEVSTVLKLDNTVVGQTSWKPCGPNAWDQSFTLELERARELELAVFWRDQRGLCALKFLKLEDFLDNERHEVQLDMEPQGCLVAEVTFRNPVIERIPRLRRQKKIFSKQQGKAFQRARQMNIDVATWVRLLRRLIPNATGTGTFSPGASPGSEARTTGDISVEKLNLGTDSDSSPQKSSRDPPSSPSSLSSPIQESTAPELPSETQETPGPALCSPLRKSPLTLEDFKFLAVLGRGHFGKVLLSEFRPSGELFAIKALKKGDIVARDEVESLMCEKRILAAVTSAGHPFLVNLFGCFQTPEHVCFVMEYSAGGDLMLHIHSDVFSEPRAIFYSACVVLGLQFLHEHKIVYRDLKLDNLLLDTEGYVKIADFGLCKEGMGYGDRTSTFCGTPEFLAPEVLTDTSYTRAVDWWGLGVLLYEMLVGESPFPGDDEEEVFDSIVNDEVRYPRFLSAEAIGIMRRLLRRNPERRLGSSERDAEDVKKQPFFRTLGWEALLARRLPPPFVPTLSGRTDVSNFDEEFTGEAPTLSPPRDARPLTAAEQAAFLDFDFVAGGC
T5 sequence (P27448 whole entry): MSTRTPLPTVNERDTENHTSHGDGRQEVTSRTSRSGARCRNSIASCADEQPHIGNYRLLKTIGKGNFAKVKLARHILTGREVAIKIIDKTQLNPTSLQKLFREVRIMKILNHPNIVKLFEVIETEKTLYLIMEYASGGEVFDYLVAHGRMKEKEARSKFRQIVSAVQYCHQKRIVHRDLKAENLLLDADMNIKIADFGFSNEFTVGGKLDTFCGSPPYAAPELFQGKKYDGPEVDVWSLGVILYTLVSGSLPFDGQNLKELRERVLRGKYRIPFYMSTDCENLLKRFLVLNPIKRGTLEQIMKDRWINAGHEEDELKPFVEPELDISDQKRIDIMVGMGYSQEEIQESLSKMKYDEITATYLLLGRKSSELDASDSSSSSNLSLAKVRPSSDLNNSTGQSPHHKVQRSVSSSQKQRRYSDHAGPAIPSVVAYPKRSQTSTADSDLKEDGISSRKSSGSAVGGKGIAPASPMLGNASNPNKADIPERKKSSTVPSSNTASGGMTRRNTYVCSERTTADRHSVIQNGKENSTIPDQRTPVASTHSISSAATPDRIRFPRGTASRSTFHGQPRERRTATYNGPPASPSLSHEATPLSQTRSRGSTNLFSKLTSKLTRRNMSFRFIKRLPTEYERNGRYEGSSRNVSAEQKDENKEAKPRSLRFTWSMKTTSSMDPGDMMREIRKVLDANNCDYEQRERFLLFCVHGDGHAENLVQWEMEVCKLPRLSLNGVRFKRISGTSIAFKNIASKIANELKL

C[C@H]1COCCN1c1nc(-c2ccc(NC(=O)NC3CC3)cc2)cc(-c2ccccc2S(C)(=O)=O)n1 [Example 4, (S)-1-cyclopropyl-3-(4-(2-(3-methylmorpholino)-6-(2-(methylsulfonyl)phenyl)pyrimidin-4-yl)phenyl)urea]
not listed: kinases (kinome) [14]
> 10 µM: all other assays above

C[C@H]1COCCN1c1cc(-c2ccccc2S(C)(=O)=O)nc(-c2ccc(NC(=O)NC3CC3)cc2)n1 [Example 6, (S)-1-cyclopropyl-3-(4-(4-(3-methylmorpholino)-6-(2-(methylsulfonyl)phenyl)pyrimidin-2-yl)phenyl)urea]
not listed: kinases (kinome) [7] | kinases (kinome) [10]
> 10 µM: all other assays above

C[C@H]1COCCN1c1nc(-c2ccc(NC(=O)N[C@H]3CCC[C@@H]3O)cc2)cc(-c2cc(F)ccc2S(C)(=O)=O)n1 [Example 76, 1-(4-(6-(5-fluoro-2-(methylsulfonyl)phenyl)-2-((S)-3-methylmorpholino)pyrimidin-4-yl)phenyl)-3-((1S,2S)-2-hydroxycyclopentyl)urea]
not listed: kinases (kinome) [10]
> 10 µM: all other assays above

C[C@H]1COCCN1c1nc(-c2ccc(NC(=O)NC3CC3)cc2)cc(-c2cccnc2S(C)(=O)=O)n1 [Example 46, (S)-1-cyclopropyl-3-(4-(2-(3-methylmorpholino)-6-(2-(methylsulfonyl)pyridin-3-yl)pyrimidin-4-yl)phenyl)urea]
not listed: kinases (kinome) [10]
> 10 µM: all other assays above

C[C@H]1COCCN1c1cc(-c2ccccn2)nc(-c2ccc(NC(=O)NCCO)cc2)n1 [Example 43, (S)-1-(2-hydroxyethyl)-3-(4-(4-(3-methylmorpholino)-6-(pyridin-2-yl)pyrimidin-2-yl)phenyl)urea]
> 10 µM: all assays above

C[C@H]1COCCN1c1nc(-c2ccc(NC(=O)NC3CC3)cc2)cc(-c2cc(F)ccc2S(C)(=O)=O)n1 [Example 40, (S)-1-cyclopropyl-3-(4-(6-(5-fluoro-2-(methylsulfonyl)phenyl)-2-(3-methylmorpholino)pyrimidin-4-yl)phenyl)urea]
> 10 µM: all assays above

CCNC(=O)Nc1ccc(-c2cc(-c3ccccc3C#N)nc(N3CCOC[C@@H]3C)n2)cc1 [Example 8, (S)-1-(4-(6-(2-cyanophenyl)-2-(3-methylmorpholino)pyrimidin-4-yl)phenyl)-3-ethylurea]
not listed: kinases (kinome) [2] | kinases (kinome) [7] | kinases (kinome) [10]
> 10 µM: all other assays above
